For this assay, the system named is human B cells. The assay can be described thus: Human B cells proliferation stimulated by anti-IgM (3H thymidine). The format is cell-based. On the procedure:
Human B Cells Proliferation stimulate by anti-IgM
Isolate PBMCs from Leukopac or from human fresh blood. Isolate human B cells by using Miltenyi protocol and B cell isolation kit II.—human B cells were Purified by using autoMACS® column.
Activation of Human B Cells
Use 96 well Flat bottom plate, plate 50000/well purified B cells in B cell proffer-ation medium (DMEM+5% FCS, 10 mM Hepes, 50 μM 2-mercaptoethanol); 150 μL medium contain 250 ng/mL CD40L-LZ recombinant protein (Amgen) and 2 μg/mL anti-Human IgM antibody (Jackson ImmunoReseach Lab.#109-006-129), mixed with 50 μL B cell medium containing PI3K inhibitors and incubate 72 h at 37° C. incubator. After 72 h, pulse labeling B cells with 0.5-1 uCi/well ^3H thymidine for overnight ˜18 h, and harvest cell using TOM harvester.

[1] abbreviates: Homo sapiens, B-cell, 72 h, purified human B cells, anti-Human IgM + CD40L-LZ.
[2] abbreviates: Homo sapiens, B-cell, purified human B cells, anti-Human IgM + CD40L-LZ, 72 h.

For orientation: IC50 means the concentration that gives 50% inhibition. For the compound `C[C@H](Nc1ncnc2[nH]cnc12)c1cc2ccc(F)cc2nc1-c1ccccc1Cl` [N-((1S)-1-(2-(2-chlorophenyl)-7-fluoro-3-quinolinyl)ethyl)-9H-purin-6-amine], the IC50 was determined as 29 nM under setting [1] and 29 nM under setting [2].

Consider `Oc1ccc(F)cc1-c1nc2c(Cl)cccc2cc1CNc1ncnc2[nH]cnc12` [2-(8-chloro-3-((9H-purin-6-ylamino)methyl)-2-quinolinyl)-4-fluorophenol], for which the half-inhibitory concentration (IC50) under setting [1] worked out at 819 nM.

As to `C[C@H](Nc1ncnc2nc[nH]c12)c1cc2cccc(F)c2nc1-c1cc(F)ccc1Cl` [N-((1S)-1-(2-(2-chloro-5-fluorophenyl)-8-fluoro-3-quinolinyl)ethyl)-7H-purin-6-amine], the 50% inhibitory concentration (IC50) under setting [1] came to 33.7 nM.

Turning to `C[C@H](Nc1ncnc2[nH]cnc12)c1cc2cccc(Cl)c2nc1-c1cccc(S(C)(=O)=O)c1` [N-((1S)-1-(8-chloro-2-(3-(methylsulfonyl)phenyl)-3-quinolinyl)ethyl)-9H-purin-6-amine], the 50% inhibitory concentration (IC50) under setting [1] is 55.8 nM.

On to `C[C@H](Nc1ncnc2[nH]cnc12)c1cc2cccc(Cl)c2nc1-c1ccc(F)cc1` [N-((1S)-1-(8-chloro-2-(4-fluorophenyl)-3-quinolinyl)ethyl)-9H-purin-6-amine], for which the IC50 under setting [1] came out at 10.5 nM.

Consider `CCC[C@H](Nc1ncnc2[nH]cnc12)c1cc2cccc(Cl)c2nc1-c1cccc(F)c1` [N-((1S)-1-(8-chloro-2-(3-fluorophenyl)-3-quinolinyl)butyl)-9H-purin-6-amine], for which, under setting [1], the IC50 was 6.52 nM.

In the case of `C[C@H](Nc1ncnc2[nH]cnc12)c1nc2cccc(Cl)c2nc1-c1cccc(F)c1` [N-((S)-1-(5-Chloro-3-(3-fluorophenyl)quinoxalin-2-yl)ethyl)-9H-purin-6-amine], the IC50 under setting [1] is 8.55 nM.

On to `C[C@@H](Nc1ncnc2[nH]cnc12)c1cc2c(Cl)cccc2nc1-c1cccc(F)c1` [N-((R)-1-(5-Chloro-2-(3-fluorophenyl)quinolin-3-yl)ethyl)-9H-purin-6-amine], for which the IC50 under setting [1] amounted to 33.6 nM.

`Clc1cccc2cc(CNc3ncnc4[nH]cnc34)c(-c3ccccc3)nc12` [N-((8-chloro-2-phenyl-3-quinolinyl)methyl)-9H-purin-6-amine]: under setting [1], the IC50 turned out to be 219 nM.

As to `C[C@H](Nc1ncnc2[nH]cnc12)c1cc2cccc(Cl)c2nc1-c1cncc(F)c1` [N-((1S)-1-(8-chloro-2-(5-fluoro-3-pyridinyl)-3-quinolinyl)ethyl)-9H-purin-6-amine], the IC50 under setting [1] came out at 3.57 nM.

Consider `C[C@@H](Nc1ncnc2[nH]cnc12)c1nc2cccc(Cl)c2cc1-c1cccc(F)c1` [N-((1R)-1-(5-chloro-3-(3-fluorophenyl)-2-quinolinyl)ethyl)-9H-purin-6-amine], for which the IC50 under setting [1] is 21 nM.

`N#Cc1cccc2cc(CNc3ncnc4[nH]cnc34)c(-c3cccc(F)c3)nc12` [2-(3-fluorophenyl)-3-((9H-purin-6-ylamino)methyl)-8-quinolinecarbonitrile]: the IC50 under setting [1] was 300 nM.

As to `C[C@H](Nc1ncnc2[nH]cnc12)c1cc2cccc(Cl)c2nc1-c1cc(F)cc(F)c1` [N-((1S)-1-(8-chloro-2-(3,5-difluorophenyl)-3-quinolinyl)ethyl)-9H-purin-6-amine], the IC50 under setting [1] is 5.04 nM and the IC50 under setting [2] came out at 5.04 nM.

As for `Fc1cccc(-c2nc3c(Cl)cccc3cc2CNc2ncnc3[nH]cnc23)c1` [N-((8-chloro-2-(3-fluorophenyl)-3-quinolinyl)methyl)-9H-purin-6-amine], the half-maximal inhibitory concentration (IC50) under setting [1] was 27.5 nM.

Regarding `CCc1ncc(F)cc1-c1nc2c(Cl)cccc2cc1[C@H](C)Nc1ncnc2[nH]cnc12` [N-((1S)-1-(8-chloro-2-(2-ethyl-5-fluoro-3-pyridinyl)-3-quinolinyl)ethyl)-9H-purin-6-amine], under setting [1], the half-inhibitory concentration (IC50) amounted to 3.84 nM.

Consider `C[C@H](Nc1ncnc2[nH]cnc12)c1cc2cccc(-c3cccc(F)c3)c2nc1-c1cccc(F)c1` [N-((1S)-1-(2,8-bis(3-fluorophenyl)-3-quinolinyl)ethyl)-9H-purin-6-amine], for which, under setting [1], the IC50 was 1.06 nM.

Consider `C[C@@H](Nc1ncnc2[nH]cnc12)c1cc2cccc(Cl)c2nc1-c1nccs1` [N-((1R)-1-(8-chloro-2-(1,3-thiazol-2-yl)-3-quinolinyl)ethyl)-9H-purin-6-amine], for which, under setting [1], the IC50 came out at 182 nM.

Take `Fc1cc(F)cc(-c2nc3c(Cl)cccc3cc2CNc2ncnc3[nH]cnc23)c1` [N-((8-chloro-2-(3,5-difluorophenyl)-3-quinolinyl)methyl)-9H-purin-6-amine]: the half-inhibitory concentration (IC50) under setting [1] came to 56 nM.

As to `Fc1cccc2nc(CNc3ncnc4[nH]cnc34)c(-c3ccccc3Cl)nc12` [N-((3-(2-Chlorophenyl)-5-fluoroquinoxalin-2-yl)methyl)-9H-purin-6-amine], the IC50 under setting [1] was determined as 299 nM.

As to `C[C@H](Nc1ncnc2[nH]cnc12)c1cc2cccc(Cl)c2nc1-c1ccc(F)cc1F` [N-((1S)-1-(8-chloro-2-(2,4-difluorophenyl)-3-quinolinyl)ethyl)-9H-purin-6-amine], the 50% inhibitory concentration (IC50) under setting [1] was 14 nM.

Turning to `Fc1ccc(Cl)c(-c2nc3c(Cl)cccc3cc2CNc2ncnc3[nH]cnc23)c1` [N-((8-chloro-2-(2-chloro-5-fluorophenyl)-3-quinolinyl)methyl)-9H-purin-6-amine], the concentration for half-maximal inhibition (IC50) under setting [1] was 38.4 nM.

`C[C@H](Nc1ncnc2[nH]cnc12)c1cc2cccc(Cl)c2nc1-c1ncccn1` [N-((1S)-1-(8-chloro-2-(2-pyrimidinyl)-3-quinolinyl)ethyl)-9H-purin-6-amine]: the concentration for half-maximal inhibition (IC50) under setting [1] was 90.4 nM.

On to `C[C@H](Nc1ncnc2[nH]cnc12)c1cc2ccc(F)cc2nc1-c1cccc(F)c1` [N-((1S)-1-(7-fluoro-2-(3-fluorophenyl)-3-quinolinyl)ethyl)-9H-purin-6-amine], for which, under setting [1], the IC50 stood at 11.5 nM.

`C[C@H](Nc1ncnc2[nH]cnc12)c1cc2c(Cl)cccc2nc1-c1cccc(F)c1` [N-((S)-1-(5-Chloro-2-(3-fluorophenyl)quinolin-3-yl)ethyl)-9H-purin-6-amine]: under setting [1], the IC50 was 14.2 nM.

Turning to `C[C@H](Nc1ncnc2[nH]cnc12)c1cc2cccc(Cl)c2nc1-c1cccnc1` [N-((1S)-1-(8-chloro-2-(3-pyridinyl)-3-quinolinyl)ethyl)-9H-purin-6-amine], under setting [1], the half-maximal inhibitory concentration (IC50) is 3.44 nM.

For `CCc1ncccc1-c1nc2c(Cl)cccc2cc1[C@H](C)Nc1ncnc2[nH]cnc12` [N-((1S)-1-(8-chloro-2-(2-ethyl-3-pyridinyl)-3-quinolinyl)ethyl)-9H-purin-6-amine], under setting [1], the half-maximal inhibitory concentration (IC50) stood at 3.31 nM.

On to `C[C@H](Nc1ncnc2[nH]cnc12)c1cc2cccc(Cl)c2nc1-c1ccccc1F` [N-((1S)-1-(8-chloro-2-(2-fluorophenyl)-3-quinolinyl)ethyl)-9H-purin-6-amine], for which the IC50 is, setting by setting: under setting [1], 3.56 nM; under setting [2], 3.56 nM.

With `C[C@H](Nc1ncnc2[nH]cnc12)c1cc2ccc(F)cc2nc1-c1cccc(F)n1` [N-((1S)-1-(7-fluoro-2-(6-fluoro-2-pyridinyl)-3-quinolinyl)ethyl)-9H-purin-6-amine], under setting [1], the IC50 stood at 3.72 nM.

For the compound `Clc1cccc2cc(COc3ncnc4[nH]cnc34)c(-c3ccccc3)nc12` [8-chloro-2-phenyl-3((9H-purin-6-yloxy)methyl)quinoline], the IC50 under setting [1] is 81.4 nM.

On to `C[C@@H](Nc1ncnc2[nH]cnc12)c1nc2cccc(Cl)c2nc1-c1cccc(F)c1` [N-((R)-1-(5-Chloro-3-(3-fluorophenyl)quinoxalin-2-yl)ethyl)-9H-purin-6-amine], for which the IC50 under setting [1] was found to be 13.9 nM.

Take `C[C@H](Nc1ncnc2[nH]cnc12)c1cc2ccc(F)cc2nc1-c1cccnc1` [N-((1S)-1-(7-fluoro-2-(3-pyridinyl)-3-quinolinyl)ethyl)-9H-purin-6-amine]: the 50% inhibitory concentration (IC50) under setting [1] is 12.2 nM.

For the compound `C[C@H](Nc1ncnc2[nH]cnc12)c1cc2cccc(Cl)c2nc1-n1ccc(C(F)(F)F)n1` [N-((1S)-1-(8-chloro-2-(3-(trifluoromethyl)-1H-pyrazol-1-yl)-3-quinolinyl)ethyl)-9H-purin-6-amine], the IC50 under setting [1] is 449 nM.

Turning to `Cc1ncccc1-c1nc2c(Cl)cccc2cc1[C@H](C)Nc1ncnc2[nH]cnc12` [N-((1S)-1-(8-chloro-2-(2-methyl-3-pyridinyl)-3-quinolinyl)ethyl)-9H-purin-6-amine], under setting [1], the concentration for half-maximal inhibition (IC50) came to 4.34 nM.

Regarding `COc1ccc(F)cc1-c1nc2c(Cl)cccc2cc1CNc1ncnc2[nH]cnc12` [N-((8-chloro-2-(5-fluoro-2-methoxyphenyl)-3-quinolinyl)methyl)-9H-purin-6-amine], under setting [1], the IC50 came out at 27.4 nM.

Turning to `C[C@@H](Nc1ncnc2[nH]cnc12)c1nc2cccc(C(F)(F)F)c2nc1-c1ccccc1Cl` [N-((1R)-1-(3-(2-chlorophenyl)-5-(trifluoromethyl)-2-quinoxalinyl)ethyl)-9H-purin-6-amine], the IC50 under setting [1] stood at 53.4 nM.

On to `Clc1ccccc1-c1nc2c(I)cccc2nc1CNc1ncnc2[nH]cnc12` [N-((3-(2-Chlorophenyl)-5-iodoquinoxalin-2-yl)methyl)-9H-purin-6-amine], for which the IC50 under setting [1] came out at 88.4 nM.

As to `Clc1ccccc1-c1nc2c(Cl)cccc2nc1CNc1ncnc2[nH]cnc12` [N-((5-chloro-3-(2-chlorophenyl)-2-quinoxalinyl)methyl)-9H-purin-6-amine], the concentration for half-maximal inhibition (IC50) under setting [1] came out at 82.5 nM.

Turning to `N#Cc1ccccc1-c1nc2c(Cl)cccc2cc1CNc1ncnc2[nH]cnc12` [2-(8-chloro-3-((9H-purin-6-ylamino)methyl)-2-quinolinyl)benzonitrile], the concentration for half-maximal inhibition (IC50) under setting [1] is 55.1 nM.

Turning to `Fc1cccc2cc(CNc3ncnc4nc[nH]c34)c(-c3ccccc3)nc12` [N-((8-fluoro-2-phenyl-3-quinolinyl)methyl)-7H-purin-6-amine], the half-maximal inhibitory concentration (IC50) under setting [1] was 240 nM.

`CC(C)Cc1ncc(F)cc1-c1nc2c(Cl)cccc2cc1[C@H](C)Nc1ncnc2[nH]cnc12` [N-((1S)-1-(8-chloro-2-(5-fluoro-2-(2-methylpropyl)-3-pyridinyl)-3-quinolinyl)ethyl)-9H-purin-6-amine]: the IC50 under setting [1] amounted to 15.5 nM.
